These results are taken from US8846933B2, “N-link hydroxamic acid derivatives useful as antibacterial agents” (Pfizer Inc., priority 2009, dated 2014).

For experiment [1], the system named is Escherichia coli EC-1: VOGEL, mouse virulent. The experiment is described as follows: MIC determination (CLSI), strain EC-1. The experiment is classed as cell-based. The conditions noted are these: strain EC-1; unit assumed. The gist of the method: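 The mouse-virulent VOGEL isolate of E. coli, EC-1, served as test organism. Minimum inhibitory concentration was measured by CLSI dilution methodology (M7-A7; M100-S18 standards).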

Experiment [2] relates to Pseudomonas aeruginosa UI-18: Wild-type (PA-7). The experiment is described as follows: MIC determination (CLSI), strain PA-7. The experiment is classed as cell-based. The conditions noted are these: strain PA-7; unit assumed. The gist of the method:
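MIC determined by broth dilution per CLSI M7-A7 guidelines with M100-S18 interpretive standards. Test organism: wild-type Pseudomonas aeruginosa UI-18, designated PA-7.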

Compound `CC(C)(O)Cc1ccc(-c2ccn(CCC(C)(C(=O)NO)S(C)(=O)=O)c(=O)c2)cc1` (centres unmarked) [Example 255, N-hydroxy-4-{4-[4-(2-hydroxy-2-methylpropyl)phenyl]-2-oxopyridin-1(2H)-yl}-2-methyl-2-(methylsulfonyl)butanamide] came in with an EC-1 (MIC) in experiment [1] of 2 µg/mL. In experiment [2], the PA-7 (MIC) was determined as 8 µg/mL.

Consider `Cc1cc2cc(-c3ccn(CCC(C)(C(=O)NO)S(C)(=O)=O)c(=O)c3)ccc2[nH]1` (centres unmarked) [Example 256, N-hydroxy-2-methyl-4-[4-(2-methyl-1H-indol-5-yl)-2-oxopyridin-1(2H)-yl]-2-(methylsulfonyl)butanamide], for which, in experiment [1], the EC-1 (MIC) was 1 µg/mL. For the same compound, the PA-7 (MIC) in experiment [2] was 4 µg/mL.

Turning to `Cc1cccc(-c2ccn(CCC(C)(C(=O)NO)S(C)(=O)=O)c(=O)c2)c1C` (centres unmarked) [Example 257, 4-[4-(2,3-dimethylphenyl)-2-oxopyridin-1(2H)-yl]-N-hydroxy-2-methyl-2-(methylsulfonyl)butanamide], the EC-1 (MIC) in experiment [1] stood at 4 µg/mL. In experiment [2], the PA-7 (MIC) was determined as 2 µg/mL.

For the compound `CC(CCn1ccc(-c2ccc3cc(O)ccc3c2)cc1=O)(C(=O)NO)S(C)(=O)=O` (centres unmarked) [Example 258, N-hydroxy-4-[4-(6-hydroxy-2-naphthyl)-2-oxopyridin-1(2H)-yl]-2-methyl-2-(methylsulfonyl)butanamide], the EC-1 (MIC) in experiment [1] came to 1 µg/mL. Besides, the PA-7 (MIC) in experiment [2] came out at 2 µg/mL.

As to `CC(CCn1ccc(-c2ccc3cnccc3c2)cc1=O)(C(=O)NO)S(C)(=O)=O` (centres unmarked) [Example 260, N-hydroxy-4-(4-isoquinolin-6-yl-2-oxopyridin-1(2H)-yl)-2-methyl-2-(methylsulfonyl)butanamide], the EC-1 (MIC) in experiment [1] is 4 µg/mL. Also, in experiment [2], the PA-7 (MIC) was found to be 4 µg/mL.

In turn, `CC(CCn1ccc(-c2ccc3ccncc3c2)cc1=O)(C(=O)NO)S(C)(=O)=O` (centres unmarked) [Example 261, N-hydroxy-4-(4-isoquinolin-7-yl-2-oxopyridin-1(2H)-yl)-2-methyl-2-(methylsulfonyl)butanamide] displayed an EC-1 (MIC) in experiment [1] of 8 µg/mL. This compound also returned a PA-7 (MIC) in experiment [2] of 4 µg/mL.

Consider `CC(C)(O)Cc1cccc(-c2ccn(CCC(C)(C(=O)NO)S(C)(=O)=O)c(=O)c2)c1` (centres unmarked) [Example 262, N-hydroxy-4-{4-[3-(2-hydroxy-2-methylpropyl)phenyl]-2-oxopyridin-1(2H)-yl}-2-methyl-2-(methylsulfonyl)butanamide], for which the EC-1 (MIC) in experiment [1] came out at 64 µg/mL. The PA-7 (MIC) in experiment [2] was more than 64 µg/mL.

Take `CC(CCn1ccc(-c2ccc3[nH]cc(CCO)c3c2)cc1=O)(C(=O)NO)S(C)(=O)=O` (centres unmarked) [Example 263, N-hydroxy-4-{4-[3-(2-hydroxyethyl)-1H-indol-5-yl]-2-oxopyridin-1(2H)-yl}-2-methyl-2-(methylsulfonyl)butanamide]: in experiment [1], the EC-1 (MIC) was 8 µg/mL. The compound also returned a PA-7 (MIC) in experiment [2] of more than 64 µg/mL.

Compound `Cc1cccc(-c2ccn(CCC(C)(C(=O)NO)S(C)(=O)=O)c(=O)c2)c1F` (centres unmarked) [Example 264, 4-[4-(2-fluoro-3-methylphenyl)-2-oxopyridin-1(2H)-yl]-N-hydroxy-2-methyl-2-(methylsulfonyl)butanamide] registered an EC-1 (MIC) in experiment [1] of 0.5 µg/mL. The PA-7 (MIC) in experiment [2] was 0.5 µg/mL.

Consider `CC(CCn1ccc(-c2ccc3c(ccn3CCO)c2)cc1=O)(C(=O)NO)S(C)(=O)=O` (centres unmarked) [Example 265, N-hydroxy-4-{4-[1-(2-hydroxyethyl)-1H-indol-5-yl]-2-oxopyridin-1(2H)-yl}-2-methyl-2-(methylsulfonyl)butanamide], for which the EC-1 (MIC) in experiment [1] stood at 4 µg/mL. In experiment [2], this compound displayed a PA-7 (MIC) of 16 µg/mL.

`Cc1c(Cl)cccc1-c1ccn(CCC(C)(C(=O)NO)S(C)(=O)=O)c(=O)c1` (centres unmarked) [Example 266, 4-[4-(3-chloro-2-methylphenyl)-2-oxopyridin-1(2H)-yl]-N-hydroxy-2-methyl-2-(methylsulfonyl)butanamide] yielded an EC-1 (MIC) in experiment [1] of 4 µg/mL. Moreover, in experiment [2], the PA-7 (MIC) stood at 4 µg/mL.

In experiment [1], `CC(CCn1ccc(-c2ccc3c(ccn3CCCO)c2)cc1=O)(C(=O)NO)S(C)(=O)=O` (centres unmarked) [Example 267, N-hydroxy-4-{4-[1-(3-hydroxypropyl)-1H-indol-5-yl]-2-oxopyridin-1(2H)-yl}-2-methyl-2-(methylsulfonyl)butanamide] registered an EC-1 (MIC) of 2 µg/mL. Besides, the PA-7 (MIC) in experiment [2] was determined as 8 µg/mL.

In experiment [1], `CC(CCn1ccc(-c2ccc(OCc3ccncc3)cc2)cc1=O)(C(=O)NO)S(C)(=O)=O` (centres unmarked) [Example 268, N-hydroxy-2-methyl-2-(methylsulfonyl)-4-{2-oxo-4-[4-(pyridin-4-ylmethoxy)phenyl]pyridin-1(2H)-yl}butanamide] came in with an EC-1 (MIC) of 1 µg/mL. For the same compound, the PA-7 (MIC) in experiment [2] is 2 µg/mL.

Turning to `CC(CCn1ccc(-c2ccc(OCc3cccnc3)cc2)cc1=O)(C(=O)NO)S(C)(=O)=O` (centres unmarked) [Example 269, N-hydroxy-2-methyl-2-(methylsulfonyl)-4-{2-oxo-4-[4-(pyridin-3-ylmethoxy)phenyl]pyridin-1(2H)-yl}butanamide], the EC-1 (MIC) in experiment [1] is 0.5 µg/mL. This compound came in with a PA-7 (MIC) in experiment [2] of 2 µg/mL.

With `CC(CCn1ccc(-c2ccc(OCc3ccccn3)cc2)cc1=O)(C(=O)NO)S(C)(=O)=O` (centres unmarked) [Example 270, N-hydroxy-2-methyl-2-(methylsulfonyl)-4-{2-oxo-4-[4-(pyridin-2-ylmethoxy)phenyl]pyridin-1(2H)-yl}butanamide], the EC-1 (MIC) in experiment [1] stood at 1 µg/mL. The PA-7 (MIC) in experiment [2] stood at 2 µg/mL.

For the compound `CC(CCn1ccc(-c2ccc(OCCc3cccnc3)cc2)cc1=O)(C(=O)NO)S(C)(=O)=O` (centres unmarked) [Example 271, N-hydroxy-2-methyl-2-(methylsulfonyl)-4-{2-oxo-4-[4-(2-pyridin-3-ylethoxy)phenyl]pyridin-1(2H)-yl}butanamide], in experiment [1], the EC-1 (MIC) turned out to be 0.25 µg/mL. Also, the PA-7 (MIC) in experiment [2] turned out to be 2 µg/mL.

For `CC(CCn1ccc(-c2ccc(OCCc3ccccn3)cc2)cc1=O)(C(=O)NO)S(C)(=O)=O` (centres unmarked) [Example 272, N-hydroxy-2-methyl-2-(methylsulfonyl)-4-{2-oxo-4-[4-(2-pyridin-2-ylethoxy)phenyl]pyridin-1(2H)-yl}butanamide], in experiment [1], the EC-1 (MIC) came out at 0.5 µg/mL. For the same compound, the PA-7 (MIC) in experiment [2] worked out at 2 µg/mL.

The compound `CC(CCn1ccc(-c2ccc3cc(OCCO)ccc3c2)cc1=O)(C(=O)NO)S(C)(=O)=O` (centres unmarked) [Example 273, N-hydroxy-4-{4-[6-(2-hydroxyethoxy)-2-naphthyl]-2-oxopyridin-1(2H)-yl}-2-methyl-2-(methylsulfonyl)butanamide] returned an EC-1 (MIC) in experiment [1] of 0.5 µg/mL. For the same compound, the PA-7 (MIC) in experiment [2] was determined as 4 µg/mL.

On to `CC(CCn1ccc(-c2ccc3cc(OCCCO)ccc3c2)cc1=O)(C(=O)NO)S(C)(=O)=O` (centres unmarked) [Example 274, N-hydroxy-4-{4-[6-(3-hydroxypropoxy)-2-naphthyl]-2-oxopyridin-1(2H)-yl}-2-methyl-2-(methylsulfonyl)butanamide], for which the EC-1 (MIC) in experiment [1] is 0.25 µg/mL. In experiment [2], this compound registered a PA-7 (MIC) of 2 µg/mL.

For the compound `CC(CCn1ccc(-c2ccc(OCCCCS(N)(=O)=O)cc2Cl)cc1=O)(C(=O)NO)S(C)(=O)=O` (centres unmarked) [Example 276, 4-[4-{4-[4-(aminosulfonyl)butoxy]-2-chlorophenyl}-2-oxopyridin-1(2H)-yl]-N-hydroxy-2-methyl-2-(methylsulfonyl)butanamide], the EC-1 (MIC) in experiment [1] was 16 µg/mL. In addition, the PA-7 (MIC) in experiment [2] came to 32 µg/mL.

With `CC(CCn1ccc(-c2ccc(OCCCCCN3CCOCC3)cc2)cc1=O)(C(=O)NO)S(C)(=O)=O` (centres unmarked) [Example 277, N-hydroxy-2-methyl-2-(methylsulfonyl)-4-[4-{4-[(5-morpholin-4-ylpentyl)oxy]phenyl}-2-oxopyridin-1(2H)-yl]butanamide], the EC-1 (MIC) in experiment [1] was 1 µg/mL. Besides, the PA-7 (MIC) in experiment [2] came to 4 µg/mL.

As for `CC(CCn1ccc(-c2ccc(-c3ccc(S(N)(=O)=O)cc3)cc2)cc1=O)(C(=O)NO)S(C)(=O)=O` (centres unmarked) [Example 278, 4-{4-[4′-(aminosulfonyl)biphenyl-4-yl]-2-oxopyridin-1(2H)-yl}-N-hydroxy-2-methyl-2-(methylsulfonyl)butanamide], the EC-1 (MIC) in experiment [1] is 2 µg/mL. This compound also registered a PA-7 (MIC) in experiment [2] of 16 µg/mL.

Compound `C[C@@](CCn1ccc(-c2ccc(OCCCCO)cc2)cc1=O)(C(=O)NO)S(C)(=O)=O` [Example 279, (2R)-N-hydroxy-4-{4-[4-(4-hydroxybutoxy)phenyl]-2-oxopyridin-1(2H)-yl}-2-methyl-2-(methylsulfonyl)butanamide] gave an EC-1 (MIC) in experiment [1] of 0.5 µg/mL. Besides, the PA-7 (MIC) in experiment [2] was 1 µg/mL.

Turning to `C[C@@](CCn1ccc(-c2ccc(OCCCCCO)cc2)cc1=O)(C(=O)NO)S(C)(=O)=O` [Example 280, (2R)-N-hydroxy-4-[4-{4-[(5-hydroxypentyl)oxy]phenyl}-2-oxopyridin-1(2H)-yl]-2-methyl-2-(methylsulfonyl)butanamide], the EC-1 (MIC) in experiment [1] came out at 0.25 µg/mL. In experiment [2], this compound yielded a PA-7 (MIC) of 0.5 µg/mL.

For the compound `CC(CCn1ccc(-c2ccc(-c3ccc(F)cc3)nc2)cc1=O)(C(=O)NO)S(C)(=O)=O` (centres unmarked) [Example 281, 4-[6-(4-fluorophenyl)-2′-oxo-3,4′-bipyridin-1′(2′H)-yl]-N-hydroxy-2-methyl-2-(methylsulfonyl)butanamide], the EC-1 (MIC) in experiment [1] was found to be 0.5 µg/mL. Further, the PA-7 (MIC) in experiment [2] was found to be 8 µg/mL.

Regarding `CC(CCn1ccc(-c2ccc(Br)c(F)c2)cc1=O)(C(=O)NO)S(C)(=O)=O` (centres unmarked) [Example 282, 4-[4-(4-bromo-3-fluorophenyl)-2-oxopyridin-1(2H)-yl]-N-hydroxy-2-methyl-2-(methylsulfonyl)butanamide], the EC-1 (MIC) in experiment [1] is 0.5 µg/mL. Besides, the PA-7 (MIC) in experiment [2] is 1 µg/mL.

The compound `CC(CCn1ccc(-c2ccc(Br)cc2F)cc1=O)(C(=O)NO)S(C)(=O)=O` (centres unmarked) [Example 283, 4-[4-(4-bromo-2-fluorophenyl)-2-oxopyridin-1(2H)-yl]-N-hydroxy-2-methyl-2-(methylsulfonyl)butanamide] had an EC-1 (MIC) in experiment [1] of 0.25 µg/mL. In experiment [2], this compound gave a PA-7 (MIC) of 1 µg/mL.

`Cc1cn(CCC(C)(C(=O)NO)S(C)(=O)=O)c(=O)cc1-c1ccccc1` (centres unmarked) [Example 284, N-hydroxy-2-methyl-4-(5-methyl-2-oxo-4-phenylpyridin-1(2H)-yl)-2-(methylsulfonyl)butanamide]: the EC-1 (MIC) in experiment [1] is 32 µg/mL. For the same compound, in experiment [2], the PA-7 (MIC) came out at 64 µg/mL.
